Measured values from publication PMC12217109, “Development of novel benzamide class I selective lysine deacetylase inhibitors as potent anticancer agents” (Journal of Enzyme Inhibition and Medicinal Chemistry, 2025).

What was measured:
T-47D = experiment: NCI-60 cytotoxicity screen; assay type: cell-based, human; settings: Homo sapiens, T47D; NCI-60, 48 h, breast
HeLa nuclear KDACs = experiment: Fluor-de-Lys HDAC fluorometric activity assay with HeLa nuclear extract; assay type: biochemical; settings: for IC50: HeLa nuclear extract, up to 20 µM, read-out: HDAC Inhibition IC50
Method: Total zinc-dependent KDAC (classes I, II and IV) activity was measured using the Fluor-de-Lys^TM HDAC fluorometric activity assay kit (BioMol, Exeter, UK), as per manufacturers protocol. Briefly, HeLa nuclear extract, potential inhibitor (5 nM–20 μM) and assay buffer were incubated in a 96-well fluorometric plate at 37 °C for 15 min. Acetylated substrate (100 μM) was added and the mixture incubated at 37 °C for a further 20 min. The developer was added and the mixture incubated at 37 °C for a further 15 min. Fluorescence was measured using a microplate reader (λex = 360 nm, λem = 460 nm). Percentage KDAC activity and thus KDAC inhibition was determined by quantification of fluorescence obtained in the presence versus absence of the respective inhibitor.

OVCAR-5 = experiment: NCI-60 cytotoxicity screen; assay type: cell-based; settings: Homo sapiens, NCI-60, 48 h, ovarian
KM12 = experiment: NCI-60 cytotoxicity screen; assay type: cell-based; settings: Homo sapiens, NCI-60, 48 h, colon
Source text: (§1) Compounds 3–7 were submitted to the US National Cancer Institute (NIH, Bethesda, Maryland) for screening against the NCI-60 panel of human cancer cell lines, as per standard protocol.

OVCAR-8 = experiment: NCI-60 cytotoxicity screen; assay type: cell-based; settings: Homo sapiens, NCI-60, 48 h, ovarian
Source text: as §1

EKVX = experiment: NCI-60 cytotoxicity screen; assay type: cell-based; settings: Homo sapiens, NCI-60, 48 h, NSCLC
Source text: as §1

SK-MEL-2 = experiment: NCI-60 cytotoxicity screen; assay type: cell-based; settings: Homo sapiens, NCI-60, 48 h, melanoma
Source text: as §1

RPMI-8226 = experiment: NCI-60 cytotoxicity screen; assay type: cell-based; settings: Homo sapiens, NCI-60, 48 h, leukaemia
Source text: as §1

HCT15 = experiment: NCI-60 cytotoxicity screen; assay type: cell-based; settings: Homo sapiens, HCT-15; NCI-60, 48 h, colon
Source text: as §1

SNB-75 = experiment: NCI-60 cytotoxicity screen; assay type: cell-based; settings: Homo sapiens, NCI-60, 48 h, CNS
Source text: as §1

H460 = experiment: NCI-60 cytotoxicity screen; assay type: cell-based; settings: Homo sapiens, NCI-60, 48 h, NSCLC
Source text: as §1

SR = experiment: NCI-60 cytotoxicity screen; assay type: cell-based; settings: Homo sapiens, NCI-60, 48 h, leukaemia
Source text: as §1

RXF 393 = experiment: NCI-60 cytotoxicity screen; assay type: cell-based; settings: Homo sapiens, NCI-60, 48 h, renal
Source text: as §1

H23 = experiment: NCI-60 cytotoxicity screen; assay type: cell-based; settings: Homo sapiens, NCI-60, 48 h, NSCLC
Source text: as §1

NCI/ADR-RES = experiment: NCI-60 cytotoxicity screen; assay type: cell-based; settings: Homo sapiens, NCI-60, 48 h, ovarian
Source text: as §1

H522 = experiment: NCI-60 cytotoxicity screen; assay type: cell-based; settings: Homo sapiens, NCI-60, 48 h, NSCLC
Source text: as §1

SF-539 = experiment: NCI-60 cytotoxicity screen; assay type: cell-based; settings: Homo sapiens, NCI-60, 48 h, CNS
Source text: as §1

MDA-MB-435 = experiment: NCI-60 cytotoxicity screen; assay type: cell-based; settings: Homo sapiens, NCI-60, 48 h, melanoma
Source text: as §1

DU-145 = experiment: NCI-60 cytotoxicity screen; assay type: cell-based; settings: Homo sapiens, NCI-60, 48 h, prostate
Source text: as §1

OVCAR-4 = experiment: NCI-60 cytotoxicity screen; assay type: cell-based; settings: Homo sapiens, NCI-60, 48 h, ovarian
Source text: as §1

U251 = experiment: NCI-60 cytotoxicity screen; assay type: cell-based; settings: Homo sapiens, U-251; NCI-60, 48 h, CNS
Source text: as §1

LOX IMVI = experiment: NCI-60 cytotoxicity screen; assay type: cell-based; settings: Homo sapiens, NCI-60, 48 h, melanoma
Source text: as §1

CAKI-1 = experiment: NCI-60 cytotoxicity screen; assay type: cell-based; settings: Homo sapiens, NCI-60, 48 h, renal
Source text: as §1

SF-268 = experiment: NCI-60 cytotoxicity screen; assay type: cell-based; settings: Homo sapiens, NCI-60, 48 h, CNS
Source text: as §1

UO-31 = experiment: NCI-60 cytotoxicity screen; assay type: cell-based; settings: Homo sapiens, NCI-60, 48 h, renal
Source text: as §1

SNB-19 = experiment: NCI-60 cytotoxicity screen; assay type: cell-based; settings: Homo sapiens, NCI-60, 48 h, CNS
Source text: as §1

SW620 = experiment: NCI-60 cytotoxicity screen; assay type: cell-based; settings: Homo sapiens, SW-620; NCI-60, 48 h, colon
Source text: as §1

SK-MEL-5 = experiment: NCI-60 cytotoxicity screen; assay type: cell-based; settings: Homo sapiens, NCI-60, 48 h, melanoma
Source text: as §1

UACC-62 = experiment: NCI-60 cytotoxicity screen; assay type: cell-based; settings: Homo sapiens, NCI-60, 48 h, melanoma
Source text: as §1

MCF-7 = experiment: NCI-60 cytotoxicity screen; assay type: cell-based; settings: Homo sapiens, MCF7; NCI-60, 48 h, breast
Source text: as §1

BT 549 = experiment: NCI-60 cytotoxicity screen; assay type: cell-based; settings: Homo sapiens, NCI-60, 48 h, breast
Source text: as §1

HS 578 T = experiment: NCI-60 cytotoxicity screen; assay type: cell-based; settings: Homo sapiens, NCI-60, 48 h, breast
Source text: as §1

HOP-62 = experiment: NCI-60 cytotoxicity screen; assay type: cell-based; settings: Homo sapiens, NCI-60, 48 h, NSCLC
Source text: as §1

SK-MEL-28 = experiment: NCI-60 cytotoxicity screen; assay type: cell-based; settings: Homo sapiens, NCI-60, 48 h, melanoma
Source text: as §1

IGROV-1 = experiment: NCI-60 cytotoxicity screen; assay type: cell-based; settings: Homo sapiens, NCI-60, 48 h, ovarian
Source text: as §1

ACHN = experiment: NCI-60 cytotoxicity screen; assay type: cell-based; settings: Homo sapiens, NCI-60, 48 h, renal
Source text: as §1

HL-60 = experiment: NCI-60 cytotoxicity screen; assay type: cell-based; settings: Homo sapiens, NCI-60, 48 h, leukaemia
Source text: as §1

M14 = experiment: NCI-60 cytotoxicity screen; assay type: cell-based; settings: Homo sapiens, NCI-60, 48 h, melanoma
Source text: as §1

COLO205 = experiment: NCI-60 cytotoxicity screen; assay type: cell-based; settings: Homo sapiens, COLO 205; NCI-60, 48 h, colon
Source text: as §1

PC-3 = experiment: NCI-60 cytotoxicity screen; assay type: cell-based; settings: Homo sapiens, NCI-60, 48 h, prostate
Source text: as §1

786-0 = experiment: NCI-60 cytotoxicity screen; assay type: cell-based; settings: Homo sapiens, NCI-60, 48 h, renal
Source text: as §1

SF-295 = experiment: NCI-60 cytotoxicity screen; assay type: cell-based; settings: Homo sapiens, NCI-60, 48 h, CNS
Source text: as §1

SN12C = experiment: NCI-60 cytotoxicity screen; assay type: cell-based; settings: Homo sapiens, NCI-60, 48 h, renal
Source text: as §1

OVCAR-3 = experiment: NCI-60 cytotoxicity screen; assay type: cell-based; settings: Homo sapiens, NCI-60, 48 h, ovarian
Source text: as §1

A549 = experiment: NCI-60 cytotoxicity screen; assay type: cell-based; settings: Homo sapiens, NCI-60, 48 h, NSCLC
Source text: as §1

## Nc1ccccc1NC(=O)c1ccc(CNC(=O)OCc2cccnc2)cc1 [Compound 1, Entinostat, reference compound]
T-47D
  IC50: 460 nM
HeLa nuclear KDACs
  IC50: 3000 ± 200 nM
OVCAR-5
  IC50: 1050 nM
KM12
  IC50: 4310 nM
OVCAR-8
  IC50: 1030 nM
EKVX
  IC50: 3260 nM
SK-MEL-2
  IC50: 1100 nM
RPMI-8226
  IC50: 900 nM
HCT15
  IC50: 8470 nM
SNB-75
  IC50: 5070 nM
H460
  IC50: 830 nM
SR
  IC50: 530 nM
RXF 393
  IC50: 1490 nM
H23
  IC50: 3220 nM
NCI/ADR-RES
  IC50: 2380 nM
H522
  IC50: 700 nM
SF-539
  IC50: 3190 nM
MDA-MB-435
  IC50: 960 nM
DU-145
  IC50: 2260 nM
OVCAR-4
  IC50: 1310 nM
U251
  IC50: 2030 nM
LOX IMVI
  IC50: 1060 nM
CAKI-1
  IC50: 1170 nM
SF-268
  IC50: 1860 nM
UO-31
  IC50: 1170 nM
SNB-19
  IC50: 6340 nM
SW620
  IC50: 1300 nM
SK-MEL-5
  IC50: 740 nM
UACC-62
  IC50: 280 nM
MCF-7
  IC50: 640 nM
BT 549
  IC50: 4140 nM
HS 578 T
  IC50: 2330 nM
HOP-62
  IC50: 2060 nM
SK-MEL-28
  IC50: 660 nM
IGROV-1
  IC50: 3950 nM
ACHN
  IC50: 2330 nM
HL-60
  IC50: 850 nM
M14
  IC50: 2350 nM
COLO205
  IC50: 2000 nM
PC-3
  IC50: 2790 nM
786-0
  IC50: 4970 nM
SF-295
  IC50: 2560 nM
SN12C
  IC50: 9400 nM
OVCAR-3
  IC50: 1740 nM
A549
  IC50: 3280 nM

## C=C(CN1CCN(c2cccc(C(F)(F)F)n2)CC1)c1ccc(C(=O)Nc2ccccc2N)cc1 [Compound 7, N-(2-aminophenyl)-4–(3-(4–(6-(trifluoromethyl)pyridin-2-yl)piperazin-1-yl)prop-1-en-2-yl)benzamide]
T-47D
  IC50: 3010 nM
HeLa nuclear KDACs
  IC50: > 20000 nM
HeLa nuclear KDACs; concentration inhibiting HDAC activity by 20%, read-out: HDAC Inhibition IC20
  IC20: 800 ± 200 nM
OVCAR-5
  IC50: 710 nM
KM12
  IC50: 670 nM
OVCAR-8
  IC50: 4250 nM
EKVX
  IC50: 24300 nM
SK-MEL-2
  IC50: 5650 nM
RPMI-8226
  IC50: 530 nM
HCT15
  IC50: 920 nM
SNB-75
  IC50: 670 nM
H460
  IC50: 640 nM
SR
  IC50: 280 nM
RXF 393
  IC50: 670 nM
H23
  IC50: 14100 nM
NCI/ADR-RES
  IC50: 640 nM
H522
  IC50: 1110 nM
SF-539
  IC50: 980 nM
MDA-MB-435
  IC50: 270 nM
DU-145
  IC50: 1450 nM
OVCAR-4
  IC50: 8360 nM
U251
  IC50: 1160 nM
LOX IMVI
  IC50: 1490 nM
CAKI-1
  IC50: 510 nM
SF-268
  IC50: 1120 nM
UO-31
  IC50: 2750 nM
SNB-19
  IC50: 650 nM
SW620
  IC50: 530 nM
SK-MEL-5
  IC50: 400 nM
UACC-62
  IC50: 970 nM
MCF-7
  IC50: 350 nM
BT 549
  IC50: 920 nM
HS 578 T
  IC50: 450 nM
HOP-62
  IC50: 2210 nM
SK-MEL-28
  IC50: 2080 nM
IGROV-1
  IC50: 2010 nM
ACHN
  IC50: 8390 nM
HL-60
  IC50: 320 nM
M14
  IC50: 970 nM
COLO205
  IC50: 3330 nM
PC-3
  IC50: 420 nM
786-0
  IC50: 1970 nM
SF-295
  IC50: 390 nM
SN12C
  IC50: 3790 nM
OVCAR-3
  IC50: 260 nM
A549
  IC50: 3320 nM
